PMC9382192, “Combined treatment with epigenetic agents enhances anti-tumor activity of MAGE-D4 peptide-specific T cells by upregulating the MAGE-D4 expression in glioma” (Frontiers in Oncology, 2022)

Legend:
Format in all cases: cell-based, human
[1] = system: MAGE-D4; experiment: MAGE-D4 expression (qRT-PCR, Western blot) in U87; settings: U87, compared to the control (0.09% DMSO); 1 μM TSA 24 h
Protocol: The human glioma cell lines (U87-MG and U251) were obtained from the Cell Bank of Type Culture Collection of the Chinese Academy of Science (Shanghai, China). […] A3656), valproic acid (VPA, CAS No. 99-66-1), and trichostatin A (TSA, CAS No. 58880-19-6) were purchased from Sigma-Aldrich Corporation (St. Louis, MO, USA). DAC and TSA were dissolved in DMSO to a concentration of 10 mM. Aliquots were stored at -80°C and diluted with media before being used. Drug treatments were divided into seven groups: (1) DAC group: cells were cultured in medium on the presence of 1 μM DAC for 120 h; (2) VPA group: cells were grown in medium containing 1 mM VPA for 120 h; (3) TSA group: cells were cultured in medium supplemented with 1 μM TSA for 24 h; (4) D + V group: cells were cultured with 1 μM DAC and 1 mM VPA for 120 h; (5) D + T group: cells were cultured with 1 μM DAC for 120 h, followed by 1 μM TSA for 24 h; (6) Control group: cells were cultured with 0.09% DMSO, which is the highest concentration of DMSO used in this study in consideration of the potential toxicity of DMSO to living cells. […] Relative intensities of the bands were normalized with GAPDH and analyzed by ImageJ (NIH, Maryland, USA).

[2] = system: U87; experiment: LDH cytotoxicity assay, U87; settings: TSA-treated U87, E:T 50:1, 4 h; compared to T cell alone and NC-T cell groups
Protocol: The human glioma cell lines (U87-MG and U251) were obtained from the Cell Bank of Type Culture Collection of the Chinese Academy of Science (Shanghai, China). Decitabine (DAC, CAS No. A3656), valproic acid (VPA, CAS No. 99-66-1), and trichostatin A (TSA, CAS No. 58880-19-6) were purchased from Sigma-Aldrich Corporation (St. Louis, MO, USA). DAC and TSA were dissolved in DMSO to a concentration of 10 mM. Aliquots were stored at −80°C and diluted with media before being used. […]
(§1) The cytotoxic activity of MAGE-D4 peptide-specific CTLs to glioma cells was determined according to the instructions of the manufacturers by our published method ([31]). […] Four hours later, suspended cells were collected for CD107a flow cytometry, meanwhile, the supernatant was collected and analyzed with granzyme A and perforin ELISA kit (Cloud-Clone Corporation, Wuhan, China) at 450 nm, and the LDH kit (Promega, USA) at 490 nm. The percentage of specific lysis was calculated using the following formula: [(experimental release − spontaneous release)/(maximum release − spontaneous release)] × 100. […] Then, the cytotoxicity assay was measured and calculated as mentioned above.

[3] = system: T cells; experiment: CFSE lymphocyte proliferation assay; settings: T cells with peptide-pulsed DCs, 96 h, flow cytometry
Protocol: CFSE assay was used to further detect the proliferation of T cells stimulated by peptide-pulsed DCs. The cells were suspended at 10^6/ml with RPMI1640 and added CFSE (5 μM/ml), then incubated at room temperature for 20 min. Fetal bovine serum (FBS, Gbico, USA) was added and incubated for 5 min to terminate the reaction, washed with PBS twice. Then, the peptide-incubated DC was added, incubated for 96 h, and performed flow cytometry analysis.

[4] = system: U251; experiment: LDH cytotoxicity assay and HLA block, U251
Protocol: The human glioma cell lines (U87-MG and U251) were obtained from the Cell Bank of Type Culture Collection of the Chinese Academy of Science (Shanghai, China). Decitabine (DAC, CAS No. A3656), valproic acid (VPA, CAS No. 99-66-1), and trichostatin A (TSA, CAS No. 58880-19-6) were purchased from Sigma-Aldrich Corporation (St. Louis, MO, USA). DAC and TSA were dissolved in DMSO to a concentration of 10 mM. Aliquots were stored at −80°C and diluted with media before being used. Drug treatments were divided into seven groups: (1) DAC group: cells were cultured in medium on the presence of 1 μM DAC for 120 h; (2) VPA group: cells were grown in medium containing 1 mM VPA for 120 h; (3) TSA group: cells were cultured in medium supplemented with 1 μM TSA for 24 h; (4) D + V group: cells were cultured with 1 μM DAC and 1 mM VPA for 120 h; (5) D + T group: cells were cultured with 1 μM DAC for 120 h, followed by 1 μM TSA for 24 h; (6) Control group: cells were cultured with 0.09% DMSO, which is the highest concentration of DMSO used in this study in consideration of the potential toxicity of DMSO to living cells. Human recombinant interleukin (IL) IL-2, IL-4, and human recombinant granulocyte/macrophage colony-stimulating factor (GM-CSF) were purchased from R&D Systems.
as §1

[5] = system: IFN-γ; experiment: IFN-γ ELISPOT; settings: 1 × 10^6 T cells/well stimulated by peptide-pulsed DCs, 20 h
Protocol: The number of T cells secreting IFN-γ was measured by ELISPOT using Human IFN-γ precoated ELISPOT kit (Dakewe, Beijing, China). Briefly, RPMI 1640 complete medium was added for 5–10 min to activate the pre-coated plate. T cells (1 × 10^6/well) stimulated by peptide-pulsed DCs were added to each well and incubated in a 37°C 5% CO2 incubator for 20 h. After lysis in cold water, the biotin-labeled antibody was added and incubated at 37°C for 1 h, then the enzyme-labeled avidin was added and incubated at 37°C for 1 h. The spots present in each well were scanned using the CTL ELISPOT analyzer and counted using the ImmunoSpot Professional Software.

Row | Compound | MAGE-D4 mRNA and protein expression [1] | cytotoxicity of peptide-specific T cells (specific lysis, LDH) [2] | proliferation index (CFSE) ([3]; Figure 4B inset bottom left) | percentage of cells that divided at least once (CFSE) ([3]; Figure 4B inset top left) | cytotoxicity of peptide-specific T cells (specific lysis, LDH) ([4]; DAC + TSA-treated U251, E:T 50:1, 4 h) | killing efficiency after HLA I block ([4]; target cells pre-incubated with HLA-ABC antibody 50 μg/ml, 37°C 40 min, versus groups without anti-HLA antibodies, Figure 6I) | number of IFN-γ secreting T cells (ELISPOT) [5]
1 | CC(/C=C/C(=O)NO)=C\[C@@H](C)C(=O)c1ccc(N(C)C)cc1 [TSA, trichostatin A] | higher |  |  |  |  |  | 
2 | CLPPPNVIL [Peptide P8] |  | higher cytotoxicity | highest | highest | cytotoxicity on the DAC + TSA-treated U251 cells with statistical significance | significantly decreased | more than that in others
